Read-outs that look alike come from different tables or passages of the source.
Test system: Wheat and Barley and weed species
Test: Post-Emergent Test III: postemergent herbicidal activity in wheat and barley, visual rating after 21 d and probit GR20/GR50/GR80/GR90 (Tables 9-13)
Format: in vivo
Settings: for pest or weed control at 17.5 g/ha / pest or weed control at 35 g/ha / pest or weed control at 70 g/ha: post-emergence, 504 h
Summary of the method: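 Greenhouse plants (~18/17 °C, 14 h photoperiod) at second–third true leaf stage sprayed at 187 L/ha with a high rate and ½× to 1/16× serial dilutions. Visual injury 0–100% versus solvent-blank controls scored at 21 d; GR20, GR50, GR80 and GR90 derived by probit analysis across rates.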

Compound: COC(=O)c1nc(-c2cc3c(cc2F)OC(F)(F)O3)cc(N)c1Cl [Compound 32]
- GR50 ALOMY (ALOMY black-grass (Alopecurus myosuroides), growth reduction of 50%, probit analysis): 5 g ai/ha
- GR80 ALOMY (ALOMY black-grass (Alopecurus myosuroides), growth reduction of 80%, probit analysis): 12 g ai/ha
- GR90 ALOMY (ALOMY black-grass (Alopecurus myosuroides), growth reduction of 90%, probit analysis): 18 g ai/ha
- Visual Growth Reduction (%) 21 Days After Application AVEFA (AVEFA wild oat (Avena fatua), 17.5 g ai/ha): E (45-59)
- Visual Growth Reduction (%) 21 Days After Application AVEFA (AVEFA wild oat (Avena fatua), 35 g ai/ha): D (60-74)
- Visual Growth Reduction (%) 21 Days After Application AVEFA (AVEFA wild oat (Avena fatua), 70 g ai/ha): D (60-74)
- GR50 AVEFA (AVEFA wild oat (Avena fatua), growth reduction of 50%, probit analysis): 31 g ai/ha
- GR80 AVEFA (AVEFA wild oat (Avena fatua), growth reduction of 80%, probit analysis): >70 g ai/ha
- GR90 AVEFA (AVEFA wild oat (Avena fatua), growth reduction of 90%, probit analysis): >70 g ai/ha
- GR20 HORVS (HORVS barley, spring (crop), growth reduction of 20%, probit analysis): 3 g ai/ha
- pest or weed control at 17.5 g/ha (Hordeum vulgare, HORVS barley, spring (crop), 17.5 g ai/ha, read-out: Visual Growth Reduction (%) 21 Days After Application HORVS): 45 to 59%
- pest or weed control at 35 g/ha (Hordeum vulgare, HORVS barley, spring (crop), 35 g ai/ha, read-out: Visual Growth Reduction (%) 21 Days After Application HORVS): 60 to 74%
- pest or weed control at 70 g/ha (Hordeum vulgare, HORVS barley, spring (crop), 70 g ai/ha, read-out: Visual Growth Reduction (%) 21 Days After Application HORVS): 60 to 74%
- GR50 LOLSS (LOLSS ryegrass, growth reduction of 50%, probit analysis): 54 g ai/ha
- GR80 LOLSS (LOLSS ryegrass, growth reduction of 80%, probit analysis): >70 g ai/ha
- GR90 LOLSS (LOLSS ryegrass, growth reduction of 90%, probit analysis): >70 g ai/ha
- Visual Growth Reduction (%) 21 Days After Application PHAMI (PHAMI lesser canary grass (Phalaris minor), 17.5 g ai/ha): G (0-29)
- Visual Growth Reduction (%) 21 Days After Application PHAMI (PHAMI lesser canary grass (Phalaris minor), 35 g ai/ha): F (30-44)
- Visual Growth Reduction (%) 21 Days After Application PHAMI (PHAMI lesser canary grass (Phalaris minor), 70 g ai/ha): E (45-59)
- GR50 PHAMI (PHAMI lesser canary grass (Phalaris minor), growth reduction of 50%, probit analysis): 65 g ai/ha
- GR80 PHAMI (PHAMI lesser canary grass (Phalaris minor), growth reduction of 80%, probit analysis): >70 g ai/ha
- GR90 PHAMI (PHAMI lesser canary grass (Phalaris minor), growth reduction of 90%, probit analysis): >70 g ai/ha
- GR20 TRZAS (TRZAS wheat, spring (crop), growth reduction of 20%, probit analysis): 1 g ai/ha
- pest or weed control at 17.5 g/ha (Triticum aestivum, TRZAS wheat, spring (crop), 17.5 g ai/ha, read-out: Visual Growth Reduction (%) 21 Days After Application TRZAS): 60 to 74%
- pest or weed control at 35 g/ha (Triticum aestivum, TRZAS wheat, spring (crop), 35 g ai/ha, read-out: Visual Growth Reduction (%) 21 Days After Application TRZAS): 60 to 74%
- pest or weed control at 70 g/ha (Triticum aestivum, TRZAS wheat, spring (crop), 70 g ai/ha, read-out: Visual Growth Reduction (%) 21 Days After Application TRZAS): 75 to 84%
- pest or weed control at 17.5 g/ha (ALOMY black-grass (Alopecurus myosuroides), 17.5 g ai/ha, read-out: Visual Growth Reduction (%) 21 Days After Application ALOMY): 85 to 94%
- pest or weed control at 35 g/ha (ALOMY black-grass (Alopecurus myosuroides), 35 g ai/ha, read-out: Visual Growth Reduction (%) 21 Days After Application ALOMY): 95 to 100%
- pest or weed control at 70 g/ha (ALOMY black-grass (Alopecurus myosuroides), 70 g ai/ha, read-out: Visual Growth Reduction (%) 21 Days After Application ALOMY): 95 to 100%
- pest or weed control at 17.5 g/ha (LOLSS ryegrass, 17.5 g ai/ha, read-out: Visual Growth Reduction (%) 21 Days After Application LOLSS): 0 to 29%
- pest or weed control at 35 g/ha (LOLSS ryegrass, 35 g ai/ha, read-out: Visual Growth Reduction (%) 21 Days After Application LOLSS): 30 to 44%
- pest or weed control at 70 g/ha (LOLSS ryegrass, 70 g ai/ha, read-out: Visual Growth Reduction (%) 21 Days After Application LOLSS): 60 to 74%

From patent publication US9149038B2, “4-amino-6-(heterocyclic)picolinates and 6-amino-2-(heterocyclic)pyrimidine-4-carboxylates and their use as herbicides” (Dow AgroSciences LLC, priority 2013, dated 2015)
